According to patent publication US9199959B2, “HIV replication inhibitor” (Shionogi & Co., Ltd., priority 2011, dated 2015):

Key:
HIV (HTLV-III B strain) = assay: HIV replication inhibition assay (MTT, MT-4 cells); type: cell-based; details: Human immunodeficiency virus 1, MT4, 96 h, four days culture, concentration at which cell cytotoxicity by virus is inhibited 50%
Description: HIV (HTLV-III B strain) persistent infected human T cell strain Molt-4 clone 8 was cultured in 10% Fetal Bovine Serum-containing RPMI-1640 medium and the supernatant was filtrated, then the virus titer was measured and the solution was stored at −80° C. Each anti-human immunodeficiency virus active substance was diluted with the above cultured medium to the designated concentration, which was dispensed into 96 well micro plate by 50 μL. Next, a MT-4 cell suspended liquid was dispensed by 100 μL (2.5×10^4 cells), then the above HIV-containing supernatant diluted with the above cultured medium was added thereto by 50 μL (60 pfu (plaque forming unit)).
The obtained mixture was cultured at 37° C. in CO2 incubator for four days, then 3-(4,5-dimehylthiazole-2-yl)-2,5-diphenyltetrazolynium bromide (MTT) 5 mg/mL in PBS was added to each well by 30 μL, followed by 1 hr-cultivation. In this step, as formazan was precipitated by reduction of MTT in living cells, the cell supernatant was removed from all well by 150 μL, then a 150 μL of solution (10% Triton X-100 and […]) was added thereto, followed by shaking with a plate mixer, to elute formazan. The formazan was measured with a microreader at OD: 560 nm and 690 nm (wavelength) and the result was compared with the reference. EC50 means the compound concentration at which cell cytotoxicity by virus is inhibited 50%.

CYP1A2 = target: T1, CYP1A2 (Homo sapiens, UniProt P05177); assay: CYP inhibition assay, 7-ethoxyresorufin O-deethylation; type: in vitro ADME; details: pooled human liver microsomes, probe 7-ethoxyresorufin (O-deethylation), 0.5 μmol/L, pooled human hepatic microsome
T1 construct: enzyme, pooled human hepatic microsome 0.2 mg protein/mL; from tissue; host or cells: pooled human liver microsomes
T1 sequence (P05177 1-516): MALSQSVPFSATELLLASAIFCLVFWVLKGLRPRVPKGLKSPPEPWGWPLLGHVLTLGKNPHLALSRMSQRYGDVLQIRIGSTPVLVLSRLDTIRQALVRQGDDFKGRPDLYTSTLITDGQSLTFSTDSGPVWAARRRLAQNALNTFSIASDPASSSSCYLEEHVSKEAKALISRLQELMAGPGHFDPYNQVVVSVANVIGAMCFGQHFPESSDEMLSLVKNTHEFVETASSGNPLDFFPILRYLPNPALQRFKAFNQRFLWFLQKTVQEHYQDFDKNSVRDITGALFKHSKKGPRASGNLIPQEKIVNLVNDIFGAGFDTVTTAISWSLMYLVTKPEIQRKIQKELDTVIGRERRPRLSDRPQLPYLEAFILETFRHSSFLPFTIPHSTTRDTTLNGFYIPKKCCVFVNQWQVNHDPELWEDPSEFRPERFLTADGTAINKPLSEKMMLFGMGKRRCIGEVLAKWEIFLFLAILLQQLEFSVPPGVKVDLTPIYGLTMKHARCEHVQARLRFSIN
Description: (§1) Using commercially available pooled human hepatic microsome, and employing, as markers, 7-ethoxyresorufin O-deethylation (CYP1A2), tolbutamide methyl-hydroxylation (CYP2C9), mephenytoin 4′-hydroxylation (CYP2C19), dextromethorphan O-demethylation (CYP2D6), and terfenedine hydroxylation (CYP3A4) as typical substrate metabolism reactions of human main five CYP enzyme forms (CYP1A2, 2C9, 2C19, 2D6, 3A4), an inhibitory degree of each metabolite production amount by a test compound was assessed.
(§2) The reaction conditions were as follows: substrate, 0.5 μmol/L ethoxyresorufin (CYP1A2), 100 μmol/L tolbutamide (CYP2C9), 50 μmol/L S-mephenytoin (CYP2C19), 5 μmol/L dextromethorphan (CYP2D6), 1 μmol/L terfenedine (CYP3A4); reaction time, 15 minutes; reaction temperature, 37° C.; enzyme, pooled human hepatic microsome 0.2 mg protein/mL; test drug concentration, 1, 5, 10, 20 μmol/L (four points).
(§3) Each five kinds of substrates, human hepatic microsome, and a test drug in 50 mmol/L Hepes buffer as a reaction solution was added to a 96-well plate as the composition as described above, NADPH, as a cofactor was added to initiate metabolism reactions as markers and, after the incubation at 37° C. for 15 minutes, a methanol/acetonitrile=1/1 (v/v) solution was added to stop the reaction. After the centrifugation at 3000 rpm for 15 minutes, resorufin (CYP1A2 metabolite) in the supernatant was quantified by a fluorescent multilabel counter and tolbutamide hydroxide (CYP2C9 metabolite), mephenytoin 4′ hydroxide (CYP2C19 metabolite), dextrorphan (CYP2D6 metabolite), and terfenadine alcohol (CYP3A4 metabolite) were quantified by LC/MS/MS.
(§4) A reaction system containing only DMSO which is a solvent for dissolving a drug was adopted as a control (100%), and the remaining activity (%) was calculated, then IC50 was calculated by reverse presumption with a logistic model using a concentration and an inhibition rate.

CYP2D6 = target: T2, CYP2D6 (Homo sapiens, UniProt P10635); assay: CYP inhibition assay, dextromethorphan O-demethylation; type: in vitro ADME; details: pooled human liver microsomes, probe dextromethorphan (O-demethylation), 5 μmol/L, pooled human hepatic microsome
T2 construct: enzyme, pooled human hepatic microsome 0.2 mg protein/mL; from tissue; host or cells: pooled human liver microsomes
Description: as §1, §2, §3, §4

CYP3A4 = target: T3, CYP3A4 (Homo sapiens, UniProt P08684); assay: CYP inhibition assay, terfenedine hydroxylation; type: in vitro ADME; details: pooled human liver microsomes, probe terfenedine (hydroxylation), 1 μmol/L, pooled human hepatic microsome
T3 construct: enzyme, pooled human hepatic microsome 0.2 mg protein/mL; from tissue; host or cells: pooled human liver microsomes
Description: as §1, §2, §3, §4

[1] = Solubility test, 1% DMSO addition, artificial intestinal juice pH 6.8; type: physicochemical; details: artificial intestinal juice with 1% DMSO, fassgf or other biorelevant, kinetic from dmso stock; pH 6.8, 1% DMSO addition, 16 hours at 25° C.
Description: The solubility of each compound was determined under 1% DMSO addition conditions. A 10 mmol/L solution of the compound was prepared with DMSO, and 6 μL of the solution was added to 594 μL of an artificial intestinal juice (water and a 118 mL solution of 0.2 mol/L NaOH reagent are added to 250 mL of 0.2 mol/L potassium dihydrogen phosphate reagent to reach 1000 mL) with a pH of 6.8. The mixture is left standing for 16 hours at 25° C., and the mixture is vacuum-filtered. The filtrate is two-fold diluted with methanol/water=1/1 (v/v), and the compound concentration in the filtrate is measured with HPLC or LC/MS/MS by the absolute calibration method.

CYP2C19 = target: T4, CYP2C19 (Homo sapiens, UniProt P33261); assay: CYP inhibition assay, mephenytoin 4'-hydroxylation; type: in vitro ADME; details: pooled human liver microsomes, probe S-mephenytoin (4'-hydroxylation), 50 μmol/L, pooled human hepatic microsome
T4 construct: enzyme, pooled human hepatic microsome 0.2 mg protein/mL; from tissue; host or cells: pooled human liver microsomes
Description: as §1, §2, §3, §4

T3 sequence (P08684 whole entry): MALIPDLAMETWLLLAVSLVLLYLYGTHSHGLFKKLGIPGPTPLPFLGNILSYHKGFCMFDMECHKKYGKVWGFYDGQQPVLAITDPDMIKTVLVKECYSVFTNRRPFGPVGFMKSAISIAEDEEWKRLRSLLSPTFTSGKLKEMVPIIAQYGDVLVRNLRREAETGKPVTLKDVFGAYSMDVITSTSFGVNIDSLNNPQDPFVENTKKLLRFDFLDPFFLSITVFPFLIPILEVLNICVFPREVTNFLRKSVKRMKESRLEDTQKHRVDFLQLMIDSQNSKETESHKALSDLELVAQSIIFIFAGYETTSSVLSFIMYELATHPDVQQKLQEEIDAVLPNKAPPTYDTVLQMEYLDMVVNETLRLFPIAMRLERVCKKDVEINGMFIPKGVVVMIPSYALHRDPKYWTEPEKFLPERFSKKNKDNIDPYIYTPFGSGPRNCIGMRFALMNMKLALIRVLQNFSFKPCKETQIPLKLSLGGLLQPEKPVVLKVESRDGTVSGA
T4 sequence (P33261 whole entry): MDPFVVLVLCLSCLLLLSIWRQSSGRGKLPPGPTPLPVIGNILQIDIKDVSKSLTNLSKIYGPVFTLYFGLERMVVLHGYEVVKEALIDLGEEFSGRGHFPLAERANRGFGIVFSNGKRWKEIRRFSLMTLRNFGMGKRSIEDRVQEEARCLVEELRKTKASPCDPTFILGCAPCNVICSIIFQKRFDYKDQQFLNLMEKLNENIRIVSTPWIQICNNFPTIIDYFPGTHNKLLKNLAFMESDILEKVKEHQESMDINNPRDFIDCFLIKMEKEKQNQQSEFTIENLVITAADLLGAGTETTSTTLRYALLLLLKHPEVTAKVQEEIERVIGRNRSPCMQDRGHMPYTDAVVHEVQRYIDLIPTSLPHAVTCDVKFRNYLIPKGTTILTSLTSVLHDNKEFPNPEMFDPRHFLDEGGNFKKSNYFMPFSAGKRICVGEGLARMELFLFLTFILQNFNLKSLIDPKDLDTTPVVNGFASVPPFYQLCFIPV
T2 sequence (P10635 whole entry): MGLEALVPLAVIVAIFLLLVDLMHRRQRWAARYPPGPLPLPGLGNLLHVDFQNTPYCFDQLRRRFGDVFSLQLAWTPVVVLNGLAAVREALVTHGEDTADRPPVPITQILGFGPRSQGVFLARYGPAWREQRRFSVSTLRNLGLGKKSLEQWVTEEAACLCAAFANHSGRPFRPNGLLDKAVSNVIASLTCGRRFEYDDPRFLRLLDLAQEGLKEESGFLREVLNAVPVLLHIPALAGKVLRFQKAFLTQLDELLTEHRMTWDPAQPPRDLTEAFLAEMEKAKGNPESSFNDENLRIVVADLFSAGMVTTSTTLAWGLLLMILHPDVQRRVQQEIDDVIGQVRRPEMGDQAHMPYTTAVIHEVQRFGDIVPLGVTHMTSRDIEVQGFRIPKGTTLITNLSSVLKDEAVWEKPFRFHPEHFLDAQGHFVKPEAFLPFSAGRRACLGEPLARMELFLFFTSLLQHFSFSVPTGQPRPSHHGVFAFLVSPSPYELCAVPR

| Structure (SMILES) | EC50 (HIV (HTLV-III B strain)) | IC50 at 15 min (CYP1A2) | IC50 at 15 min (CYP2D6) | IC50 at 15 min (CYP3A4) | solubility at 16 h [1] | IC50 at 15 min (CYP2C19) |
| --- | --- | --- | --- | --- | --- | --- |
| Cc1c(-c2c(C)c(C)c(NS(=O)(=O)c3cccc4ccccc34)c(C)c2C(OC(C)(C)C)C(=O)O)ccc2c1CCCO2 (stereo not shown) [Compound I-140] | 1.9 nM |  |  |  |  |  |
| Cc1cc(NS(=O)(=O)c2cccc(Cl)c2Cl)c(C)c(C(OC(C)(C)C)C(=O)O)c1-c1ccc2c(c1)CCCO2 (stereo not shown) [Compound I-121] | 5.2 nM |  |  |  |  |  |
| Cc1cc(NS(=O)(=O)c2cccc3cccnc23)c(C)c(C(OC(C)(C)C)C(=O)O)c1-c1ccc2c(c1)CCCO2 (stereo not shown) [Compound I-66] | 4.5 nM |  |  |  |  |  |
| Cc1ccc(-c2c(N)cc(C(OC(C)(C)C)C(=O)O)c(-c3ccc(C)c(C)c3)c2C)cc1C (stereo not shown) [Compound I-2] |  | ≥ 20000 nM | ≥ 20000 nM | ≥ 20000 nM | ≥ 50 µM | ≥ 20000 nM |
| Cc1ccc(-c2c(C)c(-c3ccc(C)c(C)c3)c3c(c2[C@H](OC(C)(C)C)C(=O)O)CCC(=O)N3C)cc1C [II-42] | 4.4 nM |  |  |  |  |  |
| CC(=O)Nc1cc(C(OC(C)(C)C)C(=O)O)c(-c2ccc(C)c(C)c2)c(C)c1-c1ccc(C)c(C)c1 (stereo not shown) [Compound I-3] |  | ≥ 20000 nM | ≥ 20000 nM | ≥ 20000 nM | ≥ 50 µM | ≥ 20000 nM |
| Cc1c(-c2c(C)c(C)c(NS(=O)(=O)c3cccc4ccccc34)c(C)c2[C@H](OC(C)(C)C)C(=O)O)ccc2c1CCCO2 [Compound I-145] | 1.2 nM |  |  |  |  |  |
| Cc1c(OCc2ccccc2)c(N(C)S(C)(=O)=O)c(C)c(C(OC(C)(C)C)C(=O)O)c1-c1ccc2c(c1)CCCO2 (stereo not shown) [Compound I-263] | 2.5 nM |  |  |  |  |  |
| Cc1ccc(-c2c(NC(=O)C(C)C)cc(C(OC(C)(C)C)C(=O)O)c(-c3ccc(C)c(C)c3)c2C)cc1C (stereo not shown) [Compound I-10] |  | ≥ 20000 nM | ≥ 20000 nM | ≥ 20000 nM | ≥ 50 µM | ≥ 20000 nM |
| CC(=O)N(C)c1c(C)c(C(OC(C)(C)C)C(=O)O)c(-c2ccc(C)c(C)c2)c(C)c1-c1ccc(C)c(C)c1 (stereo not shown) [Compound I-8] |  | ≥ 20000 nM | ≥ 20000 nM | ≥ 20000 nM |  | ≥ 20000 nM |
| COc1ccc(-c2c(C)cc(NS(=O)(=O)CC3CCCCC3)c(C)c2C(OC(C)(C)C)C(=O)O)cc1 (stereo not shown) [Compound I-285] | 4.5 nM |  |  |  |  |  |
| Cc1ccc(-c2c(C)c(-c3ccc4c(c3C)CCCO4)c(C(OC(C)(C)C)C(=O)O)c(C)c2NS(C)(=O)=O)cc1C (stereo not shown) [Compound I-215] | 2.2 nM |  |  |  |  |  |
| Cc1cc(NS(=O)(=O)CC2CCCCC2)c(C)c(C(OC(C)(C)C)C(=O)O)c1-c1ccc2c(c1C)CCCO2 (stereo not shown) [Compound I-150] | 2.3 nM |  |  |  |  |  |
| Cc1ccc(-c2c(C)c(C3=CCCCCC3)c(C(OC(C)(C)C)C(=O)O)c(C)c2NS(C)(=O)=O)cc1C (stereo not shown) [Compound I-168] | 3.9 nM |  |  |  |  |  |
| Cc1ccc(-c2c(C)c(-c3ccc(C)c(C)c3)c(C(OC(C)(C)C)C(=O)O)c(C)c2N)cc1C (stereo not shown) [Compound I-7] | 18 nM | ≥ 20000 nM | ≥ 20000 nM | ≥ 20000 nM |  | ≥ 20000 nM |
| Cc1cc2c(c(C(OC(C)(C)C)C(=O)O)c1-c1ccc3c(c1)CCCO3)CCCN2S(=O)(=O)c1cccc2ccccc12 (stereo not shown) [II-14] | 4.8 nM |  |  |  |  |  |
| CC(=O)Nc1c(Br)c(C(OC(C)(C)C)C(=O)O)c(-c2ccc(C)c(C)c2)c(C)c1-c1ccc(C)c(C)c1 (stereo not shown) [Compound I-4] | 13 nM | ≥ 20000 nM | ≥ 20000 nM | ≥ 20000 nM | ≥ 50 µM | ≥ 20000 nM |
| Cc1cc2c(c(C(OC(C)(C)C)C(=O)O)c1-c1ccc3c(c1)CCCO3)CCCN2S(=O)(=O)c1cccc2cccnc12 (stereo not shown) [II-17] | 2.5 nM |  |  |  |  |  |
| Cc1cc(-c2c(C)c(-c3ccc4c(c3C)CCCO4)c([C@H](OC(C)(C)C)C(=O)O)c(C)c2NS(C)(=O)=O)ccc1F [Compound I-305] | 2 nM |  |  |  |  |  |
| Cc1cc(-c2c(C)c(-c3cc(F)c4c(c3C)CCCO4)c([C@H](OC(C)(C)C)C(=O)O)c(C)c2NS(C)(=O)=O)ccc1F [Compound I-310] | 4 nM |  |  |  |  |  |
| Cc1cc(NS(=O)(=O)CC2CCCCC2)c(C)c(C(OC(C)(C)C)C(=O)O)c1-c1ccc2c(c1)CCCO2 (stereo not shown) [Compound I-82] | 4.1 nM |  |  |  |  |  |
| Cc1cc(NS(=O)(=O)c2cccc3ccccc23)c(C)c(C(OC(C)(C)C)C(=O)O)c1-c1ccc2c(c1)CCCO2 (stereo not shown) [Compound I-60] | 4 nM |  |  |  |  |  |
| Cc1ccc(-c2c(C(OC(C)(C)C)C(=O)O)cc(N(C)C(=O)C(C)C)c(-c3ccc(C)c(C)c3)c2C)cc1C (stereo not shown) [Compound I-9] |  | ≥ 20000 nM | ≥ 20000 nM | ≥ 20000 nM |  | ≥ 20000 nM |
| CNc1c(C)c(C(OC(C)(C)C)C(=O)O)c(-c2ccc(C)c(C)c2)c(C)c1-c1ccc(C)c(C)c1 (stereo not shown) [Compound I-14] | 19 nM |  |  |  |  |  |
| COC(=O)Nc1cc(C(OC(C)(C)C)C(=O)O)c(-c2ccc(C)c(C)c2)c(C)c1-c1ccc(C)c(C)c1 (stereo not shown) [Compound I-5] |  | ≥ 20000 nM | ≥ 20000 nM | ≥ 20000 nM |  | ≥ 20000 nM |
